Experimental data as given in patent publication US20150105252A1, “SUBSTITUTED PYRAZOLES AS HERBICIDES” (E I DU PONT DE NEMOURS AND COMPANY, priority 2013, published 2015).

Columns and labels:
bluegrass = assay: Test D postemergence; type: in vivo, Poa annua; details: scale 0 to 100
Source text: (§1) Seeds of plant species selected from bluegrass (annual bluegrass, Poa annua), blackgrass (Alopecurus myosuroides), canarygrass (littleseed canarygrass, Phalaris minor), chickweed (common chickweed, Stellaria media), galium (catchweed bedstraw, Galium aparine), bromegrass, downy (downy bromegrass, Bromus tectorum), field poppy (Papaver rhoeas), field violet (Viola arvensis), foxtail, green (green foxtail, Setaria viridis), deadnettle (henbit deadnettle, Lamium amplexicaule), ryegrass, Italian (Italian ryegrass, Lolium multiflorum), kochia (Kochia scoparia), lambsquarters (Chenopodium album), oilseed rape (Brassica napus), pigweed (redroot pigweed, Amaranthus retroflexus), chamomile (scentless chamomile, Matricaria inodora), speedwell (bird's-eye speedwell, Veronica persica), barley, spring (spring barley, Hordeum vulgare), wheat, spring (spring wheat, Triticum aestivum), buckwheat, wild (wild buckwheat, Polygonum convolvulus), mustard, wild (wild mustard, Sinapis arvensis), oat, wild (wild oat, Avena fatua), radish, wild (wild radish, Raphanus raphanistrum), windgrass (Apera spica-venti), Russian thistle (Salsola kali), barley, winter (winter barley, Hordeum vulgare), and wheat, winter (winter wheat, Triticum aestivum) were planted into a silt loam soil and treated preemergence with test chemicals formulated in a non-phytotoxic solvent mixture which included a surfactant.
(§2) At the same time, these species were planted in pots containing Redi-Earth® planting medium (Scotts Company, 14111 Scottslawn Road, Marysville, Ohio 43041) comprising spaghnum peat moss, vermiculite, wetting agent and starter nutrients and treated with postemergence applications of the test chemicals formulated in the same manner. Plants ranged in height from 2 to 18 cm (1- to 4-leaf stage). Treated plants and controls were maintained in a controlled growth environment for 14 to 21 days after which time all species were compared to controls and visually evaluated. Plant response ratings, summarized in Table D, are based on a scale of 0 to 100 where 0 is no effect and 100 is complete control. A dash (-) response means no test result.

oilseed rape = assay: Test D postemergence; type: in vivo, Brassica napus; details: scale 0 to 100
Source text: as §1, §2

bromegrass, downy = assay: Test D preemergence; type: in vivo, Bromus tectorum; details: for Plant response rating, Bromegrass, Downy: Preemergence, scale 0 to 100
Source text: as §1, §2

lambsquarters [1] = assay: Test D postemergence; type: in vivo, Chenopodium album; details: scale 0 to 100
Source text: as §1, §2

pigweed = assay: Test D postemergence; type: in vivo, Amaranthus retroflexus; details: scale 0 to 100
Source text: as §1, §2

ryegrass, Italian = assay: Test D preemergence; type: in vivo, Lolium multiflorum; details: for Plant response rating, Ryegrass, Italian: Preemergence, scale 0 to 100
Source text: as §1, §2

buckwheat, wild = assay: Test D preemergence; type: in vivo, Polygonum convolvulus; details: for Plant response rating, Buckwheat, Wild: Preemergence, scale 0 to 100
Source text: as §1, §2

oat, wild = assay: Test D postemergence; type: in vivo, Avena fatua; details: scale 0 to 100
Source text: as §1, §2

field poppy = assay: Test D postemergence; type: in vivo, Papaver rhoeas; details: scale 0 to 100
Source text: as §1, §2

lambsquarters [2] = assay: Test D preemergence; type: in vivo, Chenopodium album; details: for Plant response rating, Lambsquarters: Preemergence, scale 0 to 100
Source text: as §1, §2

canarygrass = assay: Test D postemergence; type: in vivo, Phalaris minor; details: scale 0 to 100
Source text: as §1, §2

[3] = 16 g ai/ha, taken as preemergence

CCc1cc(C(=O)NOC(C)C)nn1Cc1cccc(OC(F)(F)F)c1 [Compound 70]
Plant response rating, Bluegrass (bluegrass; Postemergence, 16 g ai/ha): 0 | Bluegrass plant response rating (bluegrass; Postemergence, 31 g ai/ha): 0 | Bluegrass plant response rating (bluegrass; Postemergence, 125 g ai/ha): 0 | Bluegrass plant response rating (bluegrass; Postemergence, 250 g ai/ha): 0 | Bluegrass plant response rating (bluegrass; postemergence, 62 g ai/ha): 0 | Plant response rating, Oilseed Rape (oilseed rape; Postemergence, 16 g ai/ha): 20 | Oilseed Rape plant response rating (oilseed rape; Postemergence, 31 g ai/ha): 40 | Oilseed Rape plant response rating (oilseed rape; Postemergence, 125 g ai/ha): 60 | Oilseed Rape plant response rating (oilseed rape; Postemergence, 250 g ai/ha): 80 | Oilseed Rape plant response rating (oilseed rape; postemergence, 62 g ai/ha): 50 | Plant response rating (scale 0 to 100), Bromegrass, Downy (bromegrass, downy; [3]): 0 | Plant response rating, Bromegrass, Downy (bromegrass, downy; 31 g ai/ha): 0 | Plant response rating, Bromegrass, Downy (bromegrass, downy; 62 g ai/ha): 0 | Plant response rating, Bromegrass, Downy (bromegrass, downy; 125 g ai/ha): 10 | Plant response rating, Bromegrass, Downy (bromegrass, downy; 250 g ai/ha): 20 | Plant response rating, Lambsquarters (lambsquarters [1]; Postemergence, 16 g ai/ha): 80 | Lambsquarters plant response rating (lambsquarters [1]; Postemergence, 31 g ai/ha): 85 | Lambsquarters plant response rating (lambsquarters [1]; Postemergence, 125 g ai/ha): 98 | Lambsquarters plant response rating (lambsquarters [1]; Postemergence, 250 g ai/ha): 98 | Lambsquarters plant response rating (lambsquarters [1]; postemergence, 62 g ai/ha): 98 | Plant response rating, Pigweed (pigweed; Postemergence, 16 g ai/ha): 40 | Pigweed plant response rating (pigweed; Postemergence, 31 g ai/ha): 60 | Pigweed plant response rating (pigweed; Postemergence, 125 g ai/ha): 75 | Pigweed plant response rating (pigweed; Postemergence, 250 g ai/ha): 90 | Pigweed plant response rating (pigweed; postemergence, 62 g ai/ha): 60 | Plant response rating (scale 0 to 100), Ryegrass, Italian (ryegrass, Italian; [3]): 0 | Plant response rating, Ryegrass, Italian (ryegrass, Italian; 31 g ai/ha): 0 | Plant response rating, Ryegrass, Italian (ryegrass, Italian; 62 g ai/ha): 0 | Plant response rating, Ryegrass, Italian (ryegrass, Italian; 125 g ai/ha): 20 | Plant response rating, Ryegrass, Italian (ryegrass, Italian; 250 g ai/ha): 75 | Plant response rating (scale 0 to 100), Buckwheat, Wild (buckwheat, wild; [3]): 0 | Plant response rating, Buckwheat, Wild (buckwheat, wild; 31 g ai/ha): 0 | Plant response rating, Buckwheat, Wild (buckwheat, wild; 62 g ai/ha): 0 | Plant response rating, Buckwheat, Wild (buckwheat, wild; 125 g ai/ha): 0 | Plant response rating, Buckwheat, Wild (buckwheat, wild; 250 g ai/ha): 100 | Plant response rating, Oat, Wild (oat, wild; Postemergence, 16 g ai/ha): 0 | Oat, Wild plant response rating (oat, wild; Postemergence, 31 g ai/ha): 0 | Oat, Wild plant response rating (oat, wild; Postemergence, 125 g ai/ha): 0 | Oat, Wild plant response rating (oat, wild; Postemergence, 250 g ai/ha): 10 | Oat, Wild plant response rating (oat, wild; postemergence, 62 g ai/ha): 0 | Plant response rating, Field Poppy (field poppy; Postemergence, 16 g ai/ha): 20 | Field Poppy plant response rating (field poppy; Postemergence, 31 g ai/ha): 70 | Field Poppy plant response rating (field poppy; Postemergence, 125 g ai/ha): 80 | Field Poppy plant response rating (field poppy; Postemergence, 250 g ai/ha): 100 | Field Poppy plant response rating (field poppy; postemergence, 62 g ai/ha): 75 | Plant response rating (scale 0 to 100), Lambsquarters (lambsquarters [2]; [3]): 0 | Plant response rating, Lambsquarters (lambsquarters [2]; 31 g ai/ha): 0 | Plant response rating, Lambsquarters (lambsquarters [2]; 62 g ai/ha): 0 | Plant response rating, Lambsquarters (lambsquarters [2]; 125 g ai/ha): 100 | Plant response rating, Lambsquarters (lambsquarters [2]; 250 g ai/ha): 100 | Plant response rating, Canarygrass (canarygrass; Postemergence, 16 g ai/ha): 0 | Canarygrass plant response rating (canarygrass; Postemergence, 31 g ai/ha): 0 | Canarygrass plant response rating (canarygrass; Postemergence, 125 g ai/ha): 0 | Canarygrass plant response rating (canarygrass; Postemergence, 250 g ai/ha): 10 | Canarygrass plant response rating (canarygrass; postemergence, 62 g ai/ha): 0
